Legend:
maize hybrid P33G26 = test: Test G maize injury with safener-treated seed; details: absence of any safener; rates ranging from 140 to 1120 g/ha
Experimental: In soil-containing pots were planted seeds of maize hybrid P33G26 that was previously treated with dichlomid, fenchlorazole-ethyl, and naphthalic anhydride (or no safener). The soil surface was then treated with several rates of Compound 131 or Compound 146 dissolved in a non-phytotoxic solvent using a flat-fan sprayer calibrated to deliver 310 L/ha. Treatmemtes were replicated 4 or 5 times. The treated and untreated plants were allowed to grow in a greenhouse using supplementary artificial lighting with a day-length of 14 hours, with the temperature maintained at about 27° C. during the day and 24° C. during the night. Plants were kept watered with a dilute balanced fertilizer solution.
At 28 days after application, the treated plants were compared with untreated controls and vissually evaluated.

common ragweed = test: Test C postemergence common ragweed; assay type: in vivo, Ambrosia elatior; details: 0 to 100 scale, 0 no effect, 100 complete control
Experimental: Compounds evaluated in this test were formulated in a non-phytotoxic solvent mixture which included a surfactant and applied to plants that were grown for various periods of time before treatment (postemergence application). A mixture of sandy loam soil and greenhouse potting mix in a 60:40 ratio was used for the postemergence test.
Plantings of these crops and weed species were adjusted to produce plants of appropriate size for the postemergence test. All plant species were grown using normal greenhouse practices. Crop and weed species include arrowleaf sida (Sida rhombifolia), barnyardgrass (Echinochloa crus-galli), cocklebur (Xanthium strumarium), common ragweed (Ambrosia elatior), corn (Zea mays), cotton (Gossypium hirsutum), eastern black nightshade (Solanum ptycanthum), fall panicum (Panicum dichotomiflorum), field bindweed (Convolvulus arvensis), giant foxtail (Setaria faberii), hairy beggarticks (Bidens pilosa), ivyleaf morningglory (Ipomoea hederacea), johnsongrass (Sorghum halepense), ladysthumb smartweed (Polygonum persicaria), lambsquarters (Chenopodium album), large crabgrass (Digitaria sanguinalis), purple nutsedge (Cyperus rotundus), redroot pigweed (Amaranthus retroflexus), soybean (Glycine max), surinam grass (Brachiaria decumbens), velvetleaf (Abutilon theophrasti) and wild poinsettia (Euphorbia heterophylla).
Treated plants and untreated controls were maintained in a greenhouse for approximately 14, to 21 days, after which all treated plants were compared to untreated controls and visually evaluated. Plant response ratings, summarized in Table C, were based upon a 0 to 100 scale where 0 was no effect and 100 was complete control. A dash response (−) means no test result.

[1] = test system: Chenopodium album (CHEAL); test: Test F preemergence, alone and in mixture with rimsulfuron, CHEAL; assay type: in vivo; details: 21 days after treatment, 0-100 scale
Experimental: (§1) Abutilon theophrasti (ABUTH), Chenopodium album (CHEAL), Amaranthus rudis (AMATA), Setaria faberii (SETFA), Panicum dichotomiflorum (PANDI), and Digitaria sanguinalis (DIGSA) were grown from seed in pots of an artificial potting mixture in a greenhouse. Compounds of the present invention were applied at 70 and 105 g ai/ha preemergence. Rimsulfuron was applied at 8.8 and 17.5 g ai/ha. Mixtures of the compounds of the present invention and rimsulfuron were also applied.
(§2) Following application, the plants were maintained by watering as needed. A fertilizer solution of Peter's 20-20-20 (10 pounds/5 gallons of water) plus Sprint 330, a Iron Chelate micronutrient, (113.5 grams/5 gallons of water) was injected into the water with an Anderson fertilizer injection system to provide approximately 219 ppm of nitrogen with each watering. Artificial lighting was used to supplement natural light to produce a 14 hour photoperiod and: an additional one hour light period was used between 1:00 am to 2:00 am for a night interruption. Greenhouse temperatures were targeted for 27° C. in the day and 21° C. at night. At 21 days after treatment, all plants were evaluated for injury as compared to control plants that were sprayed only with non-phytotoxic solvent.
(§3) Colby's equation was used to calculate the expected additive herbicidal effect of the mixtures of Compound 21 and the mixture partners listed above. […]

certain weeds = test: Test F overall statement on synergism with rimsulfuron (Colby's equation); assay type: in vivo; details: combinations with rimsulfuron, preemergence
Experimental: as §2, with “Abutilon theophrasti (ABUTH), Chenopodium album (CHEAL), Amaranthus rudis (AMATA), Setaria […]), Panicum dichotomiflorum (PANDI), and Digitaria sanguinalis (DIGSA) were grown from seed in pots of an artificial potting mixture in a greenhouse. Compounds of the present invention were applied at 70 and 105 g ai/ha preemergence. Rimsulfuron was applied at 8.8 and 17.5 g ai/ha. Mixtures of the compounds of the present invention and rimsulfuron were also applied. Following” for “Following”, “solvent. […] Colby's equation was used to calculate the expected additive herbicidal effect of the mixtures of Compound 21 and the mixture partners listed above. […]” for “solvent.”

[2] = test system: Digitaria sanguinalis (DIGSA); test: Test F preemergence, alone and in mixture with rimsulfuron, DIGSA; assay type: in vivo; details: 21 days after treatment, 0-100 scale
Experimental: as §1, §2, §3

[3] = test system: Panicum dichotomiflorum (PANDI); test: Test F preemergence, alone and in mixture with rimsulfuron, PANDI; assay type: in vivo; details: 21 days after treatment, 0-100 scale
Experimental: as §1, §2, §3

eastern black nightshade = test: Test C postemergence eastern black nightshade; assay type: in vivo, Solanum ptycanthum; details: 0 to 100 scale, 0 no effect, 100 complete control
In short: (§4)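 In this greenhouse assay, treated and untreated plants were kept for approximately 14 to 21 days following postemergence application, then rated by eye on a scale from 0 (no effect) to 100 (complete control).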

soybean = test: Test C postemergence soybean; assay type: in vivo, Glycine max; details: 0 to 100 scale, 0 no effect, 100 complete control
In short: as §4

hairy beggarticks = test: Test C postemergence hairy beggarticks; assay type: in vivo, Bidens pilosa; details: 0 to 100 scale, 0 no effect, 100 complete control
In short: as §4

barnyardgrass = test: Test C postemergence barnyardgrass; assay type: in vivo, Echinochloa crus-galli; details: 0 to 100 scale, 0 no effect, 100 complete control
In short: as §4

[4] = Alone: Cmpd. rate 70, Rimsulfuron 0
[5] = Alone: Cmpd. rate 105, Rimsulfuron 0

CC(C)N(C(=O)n1oc(=O)n(-c2ccccc2OC(F)(F)F)c1=O)c1ccc(F)cc1 [Compound 14]
Injury to maize (maize hybrid P33G26): severely injurious to maize

CC(C)N(C(=O)n1oc(=O)n(C(C)C)c1=O)c1ccccc1 [Compound 113]
Plant response rating Common ragweed (common ragweed; Rate 140 g/ha): 5 | Plant response rating Common ragweed (common ragweed; Rate 280 g/ha): 5 | Plant response rating Common ragweed (common ragweed; Rate 1120 g/ha): 20 | CHEAL Observed [1, 4]: 15% | CHEAL Observed [1, 5]: 35% | Weed control of combination with rimsulfuron compared with expectation from Colby's equation (certain weeds): better control of certain weeds than expected | DIGSA Observed [2, 4]: 95% | DIGSA Observed [2, 5]: 70% | PANDI Observed [3, 4]: 100% | PANDI Observed [3, 5]: 95% | Plant response rating E. blacknightsh (eastern black nightshade; Rate 140 g/ha): 50 | Plant response rating E. blacknightsh (eastern black nightshade; Rate 280 g/ha): 50 | Plant response rating E. blacknightsh (eastern black nightshade; Rate 1120 g/ha): 95 | Plant response rating, Soybean (soybean; Rate 140 g/ha): 40 | Plant response rating, Soybean (soybean; Rate 280 g/ha): 70 | Plant response rating, Soybean (soybean; Rate 560 g/ha): 85 | Plant response rating, Soybean (soybean; Rate 1120 g/ha): 85 | Plant response rating H. beggarticks (hairy beggarticks; Rate 140 g/ha): 5 | Plant response rating H. beggarticks (hairy beggarticks; Rate 280 g/ha): 30 | Plant response rating H. beggarticks (hairy beggarticks; Rate 560 g/ha): 30 | Plant response rating H. beggarticks (hairy beggarticks; Rate 1120 g/ha): 50 | Plant response rating, Barnyardgrass (barnyardgrass; Rate 140 g/ha): 80 | Plant response rating, Barnyardgrass (barnyardgrass; Rate 280 g/ha): 80 | Plant response rating, Barnyardgrass (barnyardgrass; Rate 560 g/ha): 85 | Plant response rating, Barnyardgrass (barnyardgrass; Rate 1120 g/ha): 95

From patent US6737383B1, “Herbicidal oxadiazolidines” (priority 1999, dated 2004)
